Patent publication US10501805B2, “Methods for determining responsiveness to MEK/ERK inhibitors” (CROWN BIOSCIENCE, INC. (TAICANG), priority 2014, dated 2019)

How the values were obtained:
Type in all cases: cell-based
HepG2 = test: CellTiter-Glo cell viability, IC50 determination; details: Homo sapiens, 72 h; HepG2 cell line; 3-day CTG assay; read-out: Absolute IC50
Protocol: (§1) All the cells will be cultured in the media supplemented with 10% FBS except for which are marked specially, in the temperature of 37° C., 5% CO2 and 95% humidity.
(§2) Cell viability is assayed by using CellTiter-Glo® Luminescent Cell Viability Assay Kit (Cat. No.: G7572, Promega. Store at −20° C.). To prepare the CellTiter_Glo Reagent, the CellTiter-Glo Buffer was thawed and equilibrated to room temperature prior to use. For convenience the CellTiter-Glo Buffer may be thawed and stored at room temperature for up to 48 hours prior to use. The lyophilized CellTiter-Glo Substrate is equilibrated to room temperature prior to use. The appropriate volume (100 ml) of CellTiter-Glo Buffer is transferred into the amber bottle containing CellTiter-Glo Substrate to reconstitute the lyophilized enzyme/substrate mixture, which forms the CellTiter-Glo Reagent. In certain cases, the entire liquid volume of the CellTiter-Glo Buffer bottle may be added to the CellTiter-Glo Substrate vial. Mix by gently vortexing, swirling or by inverting the contents to obtain a homogeneous solution. The CellTiter-Glo Substrate should go into solution easily in less than one minute.
(§3) The day before the experiment (Day −1), cells were dissociated during the logarithmic growth period with Cell Disassociation Buffer (Gibco 13151-014) and mixed with appropriate cell media and centrifuge at 1000 rpm for 3 minutes. The cells were re-suspended and counted using Countstar before adjusting cell concentrations to optimized density (i.e. 4.44×10^4 cells/ml) with respective culture medium listed in Table 1 for 3-day CTG assay (The cell density was optimized before actual study; cell density used in the test may vary for different cell lines). 90 μl cell suspensions were added to two 96-well plates (plates A and B) with the final cell density of 4×10^3 cells/well for 3-day CTG assay (the cell density was optimized before actual study; cell density used in the test may vary for different cell lines). The plate A and B group were incubated for overnight in humidified incubator at 37° C. with 5% CO2.
(§4) On Day 0, for plate A group, 10 μl culture medium was added to each well for T0 reading. CellTiter-Glo® Reagent was added at equal volume of cell culture medium present in each well (e.g., add 100 μl of reagent to 100 μl of medium containing cells for a 96-well plate). Contents were mixed for 2 minutes on an orbital shaker to facilitate cell lysis. The plate was allowed to incubate at room temperature for 10 minutes to stabilize luminescent signal. Backseal black sticker was added to the bottom of each plate. Luminescence was recorded using EnVision Multi Label Reader. This formed the basis for T0 value.
(§5) On Day 0, the test articles and positive controls were dissolved at the concentration indicated at Test Article Dilution map. 100× solution in PBS was prepared and then diluted with appropriate culture media (1:10) into 10×working solutions. 10 μl (10×) drug solutions were dispensed in each well (triplicate for each drug concentration) of the plate B group according to plate inoculation map. The test plates were incubated for […] in the humidified incubator at 37° with 5% CO2.
(§6) On Day 3, CellTiter-Glo® Reagent was added at equal volume of cell culture medium present in each well (e.g., add 100 μl of reagent to 100 μl of medium containing cells for a 96-well plate). Contents were mixed for 2 minutes on an orbital shaker to induce cell lysis. The plate was allowed to incubate at room temperature for 10 minutes to stabilize luminescent signal. Backseal black sticker was placed to the bottom of each plate. Luminescence was recorded using EnVision Multi Label Reader.
(§7) In order to calculate IC50s, a dose-response curve was fitted using a nonlinear regression model with a sigmoidal dose response. The formula for calculating surviving rate was shown below; Absolute IC50 is calculated where Y axis set at 50% using GraphPad Prism 5.0. Software. […]

PC-3 = test: CellTiter-Glo cell viability, IC50 determination; details: Homo sapiens, 72 h; PC-3 cell line; 3-day CTG assay; read-out: Absolute IC50
Protocol: as §1, §2, §3, §4, §5, §6, §7

Colo205 = test: CellTiter-Glo cell viability, IC50 determination; details: Homo sapiens, COLO 205, 72 h; Colo205 cell line; 3-day CTG assay; read-out: Absolute IC50
Protocol: as §1, §2, §3, §4, §5, §6, §7

NCI-H2227 = test: CellTiter-Glo cell viability, IC50 determination; details: 72 h; NCI-H2227 cell line; 3-day CTG assay; read-out: Absolute IC50
Protocol: as §1, §2, §3, §4, §5, §6, §7

Hela = test: CellTiter-Glo cell viability, IC50 determination; details: Homo sapiens, 72 h; Hela cell line; 3-day CTG assay; read-out: Absolute IC50
Protocol: as §1, §2, §3, §4, §5, §6, §7

SK-LU-1 = test: CellTiter-Glo cell viability, IC50 determination; details: Homo sapiens, 72 h; SK-LU-1 cell line; 3-day CTG assay; read-out: Absolute IC50
Protocol: as §1, §2, §3, §4, §5, §6, §7

HT1376 = test: CellTiter-Glo cell viability, IC50 determination; details: Homo sapiens, HT-1376, 72 h; HT1376 cell line; 3-day CTG assay; read-out: Absolute IC50
Protocol: as §1, §2, §3, §4, §5, §6, §7

panel of 50 cell lines = test: Sensitivity of cell line panel by gene mutation status
Description: We examined the anti-proliferation activity of a MEK inhibitor, trametinib, and an ERK1/2 inhibitor, SCH772984, in a panel of […] (see Table 1).
We divided the 63 cell lines into sensitive, insensitive, and uncertain groups according to their IC50's for SCH772984 and Trametinib, respectively, then detected genes with differential expression or different mutation types between sensitive and insensitive groups. These genes were enriched in several cancer related pathways.
The 63 cell lines were divided into 3 groups (See Table 1): a sensitive group (IC50 values were less than 1), an insensitive group (IC50 values are greater than 10), and an uncertain group (the rest). Accordingly, we got 25 sensitive and 22 insensitive cell lines for SCH772984, and 34 sensitive and 24 insensitive cell lines for Trametinib. Only cell lines with genomic data were used in subsequent analysis. The differentially expressed genes and enriched pathways were analysed using GSEA software, the genes with different mutation types were detected using Fisher's exact test.
29 sensitive and 20 insensitive cell lines have mutation information, and ADAM12, COL14A1, TNN and TP53 were identified by P-value cutoff of 0.01 (See Table 3 and FIG. 1-5).
21 sensitive and 18 insensitive cell lines have mutation information, and ADAM12, PEX5L, TNN and TP53 were identified by P-value cutoff of 0.01 (See Table 3 and FIGS. 6-10).

BT474 = test: CellTiter-Glo cell viability, IC50 determination; details: Homo sapiens, BT-474, 72 h; BT474 cell line; 3-day CTG assay; read-out: Absolute IC50
Protocol: as §1, §2, §3, §4, §5, §6, §7

NCI-H1299 = test: CellTiter-Glo cell viability, IC50 determination; details: Homo sapiens, 72 h; NCI-H1299 cell line; 3-day CTG assay; read-out: Absolute IC50
Protocol: as §1, §2, §3, §4, §5, §6, §7

[1] = cells harboring mutations in ADAM12 gene
[2] = cells harboring mutations in TNN gene
[3] = cells harboring mutations in TP53 gene

| SMILES | IC50 (HepG2) | IC50 (PC-3) | IC50 (Colo205) | IC50 (NCI-H2227) | IC50 (Hela) | IC50 (SK-LU-1) | IC50 (HT1376) | sensitivity to inhibitor in cells harboring mutations (panel of 50 cell lines; cells harboring multiple mutations in ADAM 12, PEX5L, TNN and TP53 gene) | sensitivity to inhibitor in cells harboring mutations (panel of 50 cell lines; [1]) | sensitivity to inhibitor in cells harboring mutations (panel of 50 cell lines; cells harboring mutations in PEX5L gene) | sensitivity to inhibitor in cells harboring mutations (panel of 50 cell lines; [2]) | sensitivity to inhibitor in cells harboring mutations (panel of 50 cell lines; [3]) | IC50 (BT474) | IC50 (NCI-H1299) | sensitivity to inhibitor in cells harboring mutations (panel of 50 cell lines; cells harboring multiple mutations in ADAM12, COL14A1, TNN, and TP53 gene) | sensitivity to inhibitor in cells harboring mutations (panel of 50 cell lines; cells harboring mutations in COL14A1 gene) |
| --- | --- | --- | --- | --- | --- | --- | --- | --- | --- | --- | --- | --- | --- | --- | --- | --- |
| O=C(Nc1ccc2[nH]nc(-c3ccncc3)c2c1)[C@@H]1CCN(CC(=O)N2CCN(c3ccc(-c4ncccn4)cc3)CC2)C1 [SCH772984, (R)-1-(2-oxo-2-(4-(4-(pyrimidin-2-yl)phenyl)piperazin-1-yl)ethyl)-N-(3-(pyridin-4-yl)-1H-indazol-5-yl)pyrrolidine-3-carboxamide] | 0.13 µM | 14.3 µM | 0.04 µM | 28.7 µM | 5.38 µM | 4.69 µM | 4.27 µM | increased sensitivity | increased sensitivity | increased sensitivity | increased sensitivity | increased sensitivity | – | – | – | – |
| CC(=O)Nc1cccc(-n2c(=O)n(C3CC3)c(=O)c3c(Nc4ccc(I)cc4F)n(C)c(=O)c(C)c32)c1 [Trametinib, N-(3-{3-Cyclopropyl-5-[(2-fluoro-4-iodophenyl)amino]-6,8-dimethyl-2,4,7-trioxo-3,4,6,7-tetrahydropyrido[4,3-d]pyrimidin-1(2H)-yl}phenyl)acetamide] | – | – | – | – | – | – | – | – | increased sensitivity | – | increased sensitivity | increased sensitivity | 39 µM | 0.91 µM | increased sensitivity | decreased sensitivity |
